The species named for assay [1] is Homo sapiens. Put plainly: Concentration required to inhibit collagen-induced platelet aggregation by 50 % (>10 uM); IA means inactive. In kind it is functional.
The species named for assay [2] is Homo sapiens. Put plainly: Concentration required to inhibit collagen-induced platelet aggregation by 50 %. In kind it is functional.

For `CCCCC[C@H](O)/C=C/[C@@H]1[C@H]2C/C(=C/CCCC(=O)O)C[C@H]2C[C@H]1O`, in the assay filed under Homo sapiens [1], the half-inhibitory concentration (IC50) (usually the midpoint of a concentration-inhibition curve) is listed as “Not Active”. Same read-out and setting: then `CCC#CC[C@H](C)[C@H](O)C#C[C@@H]1[C@H]2C/C(=C/COCC(=O)O)C[C@H]2C[C@H]1O` [CICAPROST], with “Not Active”. In the assay listed under Homo sapiens [2], `CC(C)(C/C=C1\C[C@H]2C[C@@H](O)[C@H](C#C[C@H](O)C3CCCCC3)[C@H]2C1)CC(=O)O` showed an IC50 of 0.48 µM. Consider `CC(C)(C/C=C1\C[C@H]2C[C@@H](O)[C@H](C#C[C@@H](O)C3CCCCC3)[C@H]2C1)CCO`, for which the IC50 result in the assay filed under Homo sapiens [1] is given as “Not Active”. The same measure, in the same setting: then `O=C(O)COc1cccc2c1C[C@H]1C[C@@H](O)[C@H](CC[C@@H](O)C3CCCCC3)[C@H]1C2`, with “Not Active”.

The values are drawn from ChEMBL document CHEMBL1125963, “Triply-convergent synthesis of a homochiral 3,3-dimethyl, 15-cyclohexyl prostacyclin analog” (Bioorg Med Chem Lett, 1991).
